In brackets after ≈: the same amount, converted by molar mass. Entries after “also recorded” stand apart in the source; their conditions may differ. Structures can show the parent of a compound that is named as a salt.
Experiments:
[1] = Absorption of bromhexine from the intestinal tract (preliminary tests in vivo); details: for absorption from the intestinal tract: micronized, introduced by preparation resistant to gastric juices
Excerpt: In view of the obvious advantages of producing a delayed-release form of bromhexine, there has been no shortage of attempts to produce such a preparation. […] In cases such as this, success is often achieved if the active substance is mixed with an emulsifier which then releases the active substance in solubilized form in the intestinal juices.

[2] = Solubility of bromhexine base in phosphate buffer / aqueous medium; type: physicochemical; details: for solubility: aqueous buffer
Excerpt: If, for example, bromhexine hydrochloride is made into the form of a matrix-type delayed-release tablet (Example 11), bromhexine can only be released, in dissolved form, from this preparation as long as the tablet is in the acidic medium of the stomach. […] The intestinal juices momentarily buffer the acid salts to form a substantially insoluble bromhexine base.

[3] = cited from earlier work

SMILES	absorption from the intestinal tract [1]	Solubility in water ([2]; above a pH of 4 / from pH 4.0)	Solubility in aqueous medium ([2]; acidic range)	solubility ([2]; pH 4.5, phosphate buffer) [µg/mL]	solubility ([2]; pH 5.0, phosphate buffer) [µg/mL]	solubility ([2]; pH 6.0, phosphate buffer) [µg/mL]	solubility ([2]; pH 6.5, phosphate buffer) [µg/mL]	solubility ([2]; pH 7.0, phosphate buffer) [µg/mL]	frequency of coughing, total number of coughing spasms and intensity of the cough ([3]; in vivo)	therapeutic effect in diseases of the respiratory tract ([3]; pathological change in secretion, single or double blind testing)	breathing ([3]; patients' finding)	absorption rate along the intestine ([1]; dissolved bromhexine in various intestinal sections, duodenum to colon)
CN(Cc1cc(Br)cc(Br)c1N)C1CCCCC1 [micronized bromhexine hydrochloride]	did not result in any appreciable absorption	–	–	–	–	–	–	–	–	–	–	–
CN(Cc1cc(Br)cc(Br)c1N)C1CCCCC1 [micronized bromhexine]	not absorbed	–	–	–	–	–	–	–	–	–	–	–
CN(Cc1cc(Br)cc(Br)c1N)C1CCCCC1 [bromhexine, N-cyclohexyl-N-methyl-(2-amino-3,5-dibromobenzyl)-amine]	–	virtually insoluble in water; also recorded: virtually insoluble from pH 4.0	soluble only in the acidic range	650 (≈ 1730 µM)	150 (≈ 399 µM)	30 (≈ 79.8 µM)	10 (≈ 26.6 µM)	3 (≈ 7.98 µM)	favorably affected	often been confirmed	breathing is eased	decreases sharply from the duodenum to the colon; also recorded: absorbed particularly quickly in the uppermost section of the intestines; also recorded: decreases significantly in the lower intestinal regions

Reference: patent US4438091A, “Bromhexine delayed-release pharmaceutical form” (Dr. Karl Thomae GmbH, priority 1981, dated 1984)
